Consider 18 molecules from patent US20240092802A1, “MU-OPIOID RECEPTOR AGONISTS AND USES THEREFOR” (Kures, Inc., priority 2020, published 2024).

Several values for one entry are separate records, joined by “and”; a condition that tells them apart may be missing. Identical values can stand only once. Counter-ions that a name gives are not always drawn. Like-named read-outs stand apart in the source and are kept apart here.

In data set [1] the target is Mouse MOR (Mus musculus (Mouse), UniProt P42866). In words: BRET G protein activation assay, mouse MOR in transfected HEK-293T cells. Format: cell-based. The following applies: mean ± SEM. The source says: (§1) Transfection. Human or mouse MOR cDNA was transfected alongside GαoB with RLuc8 inserted at position 91 (GαoB-RLuc8), Gβ1 (β1), and Gγ2 fused to the full-length mVenus at its N terminus (mVenus γ2) into HEK-293T cells (5×10^6 cells/plate) in 10-cm dishes using PEI (Polysciences Inc.; Warrington, PA) in a 1:1 ratio diluted in Opti-MEM (Life Technologies Corp.; Grand Island, NY) to assay for G protein activation as described previously (Rives, M.-L. et al. J. Biol. Chem. 2012, 287, 27050-4; Negri, A.; Rives, M.-L.; Caspers, M. J. et al. J. Chem. Inf. Model. 2013, 53, 521-526). Cells were maintained in the Dulbecco's Modified Eagle Medium (high glucose #11965; Life Technologies) supplemented with 10% FBS (Premium Select, Atlanta Biologicals; Atlanta, GA) and 100 U/mL penicillin and 100 μg/mL streptomycin (#15140, Life Technologies). After 24 hours the media was changed, and the experiment was performed 24 hours later (48 hours after transfection).
Chain of Mouse MOR (P42866 whole entry, looked up, the tested form may be a part): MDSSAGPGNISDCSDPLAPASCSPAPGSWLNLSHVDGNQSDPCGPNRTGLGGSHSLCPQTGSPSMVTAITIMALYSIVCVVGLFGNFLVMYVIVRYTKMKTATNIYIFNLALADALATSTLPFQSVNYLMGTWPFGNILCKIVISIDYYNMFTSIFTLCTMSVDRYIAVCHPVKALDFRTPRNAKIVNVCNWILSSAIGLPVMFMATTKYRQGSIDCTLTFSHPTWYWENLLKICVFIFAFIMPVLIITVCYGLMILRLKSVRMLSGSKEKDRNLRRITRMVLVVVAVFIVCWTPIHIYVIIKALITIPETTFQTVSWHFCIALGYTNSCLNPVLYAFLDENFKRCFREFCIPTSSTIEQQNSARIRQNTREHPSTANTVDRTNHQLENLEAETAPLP
(§2) BRET. Transfected cells were dissociated and resuspended in phosphate-buffered saline (PBS). Approximately 200,000 cells/well were added to a black-framed, white well 96-well plate (#60050; Perkin Elmer; Waltham, MA). The microplate was centrifuged and the cells were resuspended in PBS. Then 5 μM of the luciferase substrate coelenterazine H was added to each well for 5 minutes. Following coelenterazine H addition, ligands were added and the BRET signal was measured at 5 minutes on a PHERAstar FS plate reader. Quantification of the BRET signal required calculating the ratio of the light emitted by the energy acceptor, mVenus (510-540 nm), over the light emitted by the energy donor, RLuc8 (485 nm). […] Dose response curves were fit using three-parameter logistics equation in GraphPad Prism 6.

Data set [2] has as its target Human MOR (Homo sapiens (Human), UniProt P35372). The data set is described as follows: BRET G protein activation assay, human MOR in transfected HEK-293T cells. Type of data set: cell-based.
Text: as §1, §2

Data set [3] can be described thus: Pharmacokinetics and brain distribution after single intraperitoneal dose in male C57BL/6 mice. The following applies: for MRT last: MRTlast. On the procedure: For each compound, a group of twenty-four male mice were administered with a solution formulation of the drug in normal saline intraperitoneally at a dose of 10 mg/kg. Blood samples (approximately 60 μL) were collected under light isoflurane anesthesia from the retro orbital plexus at 0.08, 0.25, 0.5, 1, 2, 4, 8 and 24 hr. Plasma samples were separated by centrifugation of whole blood and stored below −70° C. until bioanalysis. Immediately after collection of blood, brain samples were collected from each mouse at 0.08, 0.25, 0.5, 1, 2, 4, 8 and 24 hr. Brain samples were homogenized using ice-cold phosphate buffer saline (pH 7.4) and homogenates were stored below −70° C. until analysis. Total homogenate volume was three times the tissue weight. All samples were processed for analysis by protein precipitation using acetonitrile (ACN) and analyzed with fit-for-purpose LC/MS/MS method (LLOQ—1.01 ng/mL in plasma and brain). Pharmacokinetic parameters were calculated using the non-compartmental analysis tool of Phoenix WinNonlin® (Version 6.3).

Where [4] appears, read: BRET G protein activation, HEK-293T, mean ± SEM, read-out: EC50 Human MOR.
Setting [5] is: brain, i.p. 10 mg/kg, male C57BL/6 mice.
[6] abbreviates: i.p. 10 mg/kg, male C57BL/6 mice.
Where [7] appears, read: male, C57BL/6, mouse, in vivo, ip, 10 mg/kg.
Setting [8] is: male, C57BL/6, mouse, in vivo, ip, 10 mg/kg, brain, i.p. 10 mg/kg, male C57BL/6 mice.
Where [9] appears, read: male, C57BL/6, mouse, in vivo, ip, 10 mg/kg, plasma, i.p. 10 mg/kg, male C57BL/6 mice.

Chain of Human MOR (P35372 whole entry): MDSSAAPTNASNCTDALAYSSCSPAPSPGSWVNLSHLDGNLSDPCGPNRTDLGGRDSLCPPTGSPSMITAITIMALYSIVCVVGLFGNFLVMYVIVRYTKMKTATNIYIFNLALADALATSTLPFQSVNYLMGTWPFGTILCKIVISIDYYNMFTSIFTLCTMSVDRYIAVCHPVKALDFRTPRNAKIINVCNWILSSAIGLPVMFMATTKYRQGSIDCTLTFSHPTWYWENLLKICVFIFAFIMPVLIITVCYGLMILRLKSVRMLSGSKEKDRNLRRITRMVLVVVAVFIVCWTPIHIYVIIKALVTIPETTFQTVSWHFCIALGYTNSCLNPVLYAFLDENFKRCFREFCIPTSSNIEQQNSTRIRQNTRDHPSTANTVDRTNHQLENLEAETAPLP

Take `CCCCCNC1c2ccccc2N(C)S(=O)(=O)c2ccccc21` (centres unmarked) [compound 8, 6-Methyl-11-(pentylamino)-6,11-dihydrodibenzo[c,f][1,2]thiazepine 5,5-dioxide]: the EC50 in data set [1] and in data set [2] (setting [4]) was under 10 µM each time.
Regarding `CCOC(=O)CCCCNC1c2ccccc2N(C)S(=O)(=O)c2cc(Cl)ccc21` (centres unmarked) [compound 17, Ethyl 5-((3-chloro-6-methyl-5,5-dioxido-6,11-dihydrodibenzo[c,f][1,2]thiazepin-11-yl)amino)pentanoate], the EC50 in data set [1] and in data set [2] (setting [4]) was under 10 µM each time.
In the case of `CN1c2ccccc2C(NCCCCC(=O)O)c2ccc(Cl)cc2S1(=O)=O` (centres unmarked) [compound 18, 5-((3-Chloro-6-methyl-5,5-dioxido-6,11-dihydrodibenzo[c,f][1,2]thiazepin-11-yl)amino)pentanoic acid], the EC50 in data set [1] and in data set [2] (setting [4]) was under 10 µM in each case.
Regarding `CCCCCNC1c2ccccc2N(C)S(=O)(=O)c2cc(Cl)ccc21` (centres unmarked) [compound 19, 3-Chloro-6-methyl-11-(pentylamino)-6,11-dihydrodibenzo [c,f][1,2]thiazepine 5,5-dioxide], the EC50 in data set [1] and in data set [2] (setting [4]) was under 10 µM each time.
Regarding `CNC1c2ccccc2N(C)S(=O)(=O)c2cc(Cl)ccc21` (centres unmarked) [compound 20, 3-Chloro-6-methyl-11-(methylamino)-6,11-dihydrodibenzo [c,f][1,2]thiazepine 5,5-dioxide], the EC50 in data set [1] and in data set [2] (setting [4]) was under 10 µM throughout.
`CCCNC1c2ccccc2N(C)S(=O)(=O)c2cc(Cl)ccc21` (centres unmarked) [compound 21, 3-Chloro-6-methyl-11-(propylamino)-6,11-dihydrodibenzo [c,f][1,2]thiazepine 5,5-dioxide]: the EC50 in data set [1] and in data set [2] (setting [4]) was under 10 µM each time.
Consider `CC(C)NC1c2ccccc2N(C)S(=O)(=O)c2cc(Cl)ccc21` (centres unmarked) [compound 22, 3-Chloro-11-(isopropylamino)-6-methyl-6,11-dihydrodibenzo [c,f][1,2]thiazepine 5,5-dioxide], for which the EC50 in data set [1] and in data set [2] (setting [4]) was under 10 µM throughout.
In data set [3] (setting [5]), `COCCCNC1c2ccccc2N(C)S(=O)(=O)c2cc(Cl)ccc21` (centres unmarked) [compound 23, 3-Chloro-11-((3-methoxypropyl)amino)-6-methyl-6,11-dihydrodibenzo [c,f][1,2]thiazepine 5,5-dioxide] displayed an AUClast of 335.03 ng·h/g and a CL of 260.44 mL/min/kg. Further, in data set [3] (setting [6]), the “half-life compared with tianeptine” value is “much longer half-life” and the “systemic exposure (AUC) compared with tianeptine” value is reported as “higher systemic exposure (AUC)”. For the same molecule, in data set [3] (setting [7]), the AUC(0-t) was found to be 3060 ng·h/mL; the Cmax is 1540 ng/mL and 378 ng/g. In addition, in data set [3] (setting [8]), the MRT last was 1.27 h and the Tmax came out at 0.08 h. In data set [3] (setting [9]), the MRT last came to 2.29 h and the Tmax was 0.25 h. Also, the half-life in data set [3] (male, C57BL/6, mouse, in vivo, ip, 10 mg/kg, T1/2, brain, i.p. 10 mg/kg, male C57BL/6 mice) is 5.12 h. Besides, the half-life in data set [3] (male, C57BL/6, mouse, in vivo, ip, 10 mg/kg, T1/2, plasma, i.p. 10 mg/kg, male C57BL/6 mice) is 3.93 h. This molecule had a CL in data set [3] (plasma, i.p. 10 mg/kg, male C57BL/6 mice) of 44.27 mL/min/kg.
Consider `COCCCNC1c2ccccc2N(C)S(=O)(=O)c2cc(SC)ccc21` (centres unmarked) [compound 44, 11-((3-Methoxypropyl)amino)-6-methyl-3-(methylthio)-6,11-dihydrodibenzo[c,f][1,2]thiazepine 5,5-dioxide], for which the EC50 in data set [1] and in data set [2] (setting [4]) was under 10 µM throughout.
On to `COCCCNC1c2ccc(Cl)cc2N(C)S(=O)(=O)c2ccccc21` (centres unmarked) [compound 69, 8-Chloro-11-((3-methoxypropyl)amino)-6-methyl-6,11-dihydrodibenzo [c,f][1,2]thiazepine 5,5-dioxide], for which, in data set [2] (setting [4]), the EC50 is under 20 µM.
On the same count and under the same terms, under `COCCCNC1c2ccc(Br)cc2S(=O)(=O)N(C)c2ccsc21` (centres unmarked) [compound 72, 7-Bromo-10-((3-methoxypropyl)amino)-4-methyl-4, 10-dihydrobenzo[f]thieno[3,2-c][1,2]thiazepine 5,5-dioxide] stands under 10 µM; under `CCOCCCNC1c2ccc(Br)cc2S(=O)(=O)N(C)c2ccsc21` (centres unmarked) [compound 73, 7-Bromo-10-((3-ethoxypropyl)amino)-4-methyl-4, 10-dihydrobenzo[f]thieno[3,2-c][1,2]thiazepine 5,5-dioxide], under 10 µM; under `CCOC(=O)CCCCCCNC1c2ccc(Br)cc2S(=O)(=O)N(C)c2ccsc21` (centres unmarked) [compound 74, Ethyl 7-((7-bromo-4-methyl-5,5-dioxido-4, 10-dihydrobenzo[f]thieno[3,2-c][1,2]thiazepin-10-yl)amino)heptanoate], under 10 µM.
As for `COCCCNC1c2ccccc2N(C)S(=O)(=O)c2cc(OCc3ccccc3)ccc21` (centres unmarked) [compound 75, 3-(Benzyloxy)-11-((3-methoxypropyl)amino)-6-methyl-6,11-dihydrodibenzo[c,f][1,2]thiazepine 5,5-dioxide], the EC50 in data set [2] (setting [4]) was over 20 µM.
With `COCCCNC1c2ccc(Cl)cc2S(=O)(=O)N(C)c2ccsc21` (centres unmarked) [compound 77, 7-Chloro-10-((3-methoxypropyl)amino)-4-methyl-4, 10-dihydrobenzo[f]thieno[3,2-c][1,2]thiazepine 5,5-dioxide], the EC50 in data set [2] (setting [4]) was under 10 µM.
On the same count and under the same terms, in the case of `CCOCCCNC1c2ccc(Cl)cc2S(=O)(=O)N(C)c2ccsc21` (centres unmarked) [compound 78, 7-Chloro-10-((3-ethoxypropyl)amino)-4-methyl-4, 10-dihydrobenzo[f]thieno[3,2-c][1,2]thiazepine 5,5-dioxide] it was under 10 µM; in that of `CCOC(=O)CCCCCCNC1c2ccc(Cl)cc2S(=O)(=O)N(C)c2ccsc21` (centres unmarked) [compound 79, Ethyl 7-((7-chloro-4-methyl-5,5-dioxido-4, 10-dihydrobenzo[f]thieno[3,2-c][1,2]thiazepin-10-yl)amino)heptanoate], under 10 µM.
In data set [2], `CN1c2ccccc2C(NCCCCCCC(=O)O)c2ccc(I)cc2S1(=O)=O` (centres unmarked) [compound 84, 7-((3-Iodo-6-methyl-5,5-dioxido-6,11-dihydrodibenzo [c,f][1,2]thiazepin-11-yl)amino)heptanoic acid hydrochloride salt] yielded an EC50 of 0.04 µM.
